# Positions of bridges follow the written chain, without caps; N, C: chain ends. Non-standard residues stand in square brackets, D forms with d. Residues, ends and D or L forms follow the SMILES beside them. Orn = NCCC[C@H](N)C(=O)O; Mpa = O=C(O)CCS
# Assays:
# [1] = tested on: Human uterine smooth muscle cells; assay: Intracellular Ca2+ with Fluo-4 and confocal live cell imaging; type: cell-based
# Description: Human uterine smooth muscle cells were established in a culture. A method to measuring intracellular Ca^2+ with the calcium indicator dye Fluo-4 and live cell imaging with confocal microscopy was established for the cells.
# [2] = comparison value for heparin, species not stated; cited from earlier work
compound,measurement,setting,value
CC[C@H](C)[C@@H]1NC(=O)[C@H](Cc2ccc(O)cc2)NC(=O)[C@@H](N)CSSC[C@@H](C(=O)N2CCC[C@H]2C(=O)N[C@@H](CC(C)C)C(=O)NCC(N)=O)NC(=O)[C@H](CC(N)=O)NC(=O)[C@H](CCC(N)=O)NC1=O [oxytocin],concentration giving maximum effect on Ca2+-influx to the cytosol,[1]; dose-dependent effect,0.05 IU/ml
CCOc1ccc(C[C@H]2NC(=O)CCSSC[C@@H](C(=O)N3CCC[C@H]3C(=O)N[C@@H](CCCN)C(=O)NCC(N)=O)NC(=O)[C@H](CC(N)=O)NC(=O)[C@H]([C@@H](C)O)NC(=O)[C@H]([C@@H](C)CC)NC2=O)cc1 [Atosiban] ([Mpa][dY](Et)ITNCP[Orn]G-NH2; disulfide 1-6),effect on Ca2+ transport by oxytocin and the combination oxytocin/DF01,[1]; 10^−6 M,clearly inhibited
"NCCOB(c1ccccc1)c1ccccc1 [2-APB, 2-Aminoethoxydiphenyl borate]",effect on oxytocin and oxytocin/DF01 stimulated Ca2+-transport,"[1]; 100 μM, 30 min of incubation",decreased strongly
heparin,corresponding (subcutaneous) bioavailability,[2],about 10%

# Source: patent US20150045322A1, “COMBINATION TREATMENT COMPRISING SULPHATED GLYCOSAMINOGLYCANS FOR INDUCING LABOR” (DILAFOR AB, priority 2012, published 2015)
